Measurements as given in patent US8686048B2, “Immunomodulator and anti-inflammatory compounds” (Rhizen Pharmaceuticals SA, priority 2010, dated 2014).
pIC50: −log10 of the molar value.

Columns and labels:
h-DHODH = target: T1, h-DHODH (Homo sapiens, UniProt Q02127); assay: Dihydro-orotate dehydrogenase inhibition assay (U937 membrane preparations, DCIP reduction); type: biochemical; conditions: U937 membrane preparation; for inhibition at 0.3 µM: compound tested at 0.3 uM (footnote *)
T1 construct: endogenous in cells; host or cells: U937 cells (membrane fraction, solubilised with 1% octyl glucoside)
Method: Dihydro-Orotate Dehydrogenase Inhibition Assay
Dihydro-orotate dehydrogenase (DHODH) catalyzes the […] of dihydro-orotate to orotate during de novo biosynthesis of pyrimidines Inhibition of DHODH activity in U937 membrane preparations was measured by the dihydro-orotate driven reduction of 2,6 dichloroindophenol (DCIP).
U937 cells were homogenized in 20 mM Tris/HCl (pH 7.2) containing 1 mM EDTA. […] Following washes, the pellet was dissolved in 20 mM Tris/HCl containing 150 mM NaCl, 1 mM EDTA, and 1% octyl glucoside on ice for 1 h. Particulate matter was removed by centrifugation at 100000×g for 1 h at 4° C. […] The mixture was incubated at 37° C. for 4 h before measuring the change in absorbance on a plate reader (BMG Labtech., Germany) at 600 nm. Data were analyzed using GraphPad Prism. IC50 for each compound was determined based on the percent inhibition of dihydro-orotate […].

IL-17 = assay: Inhibition of IL-17 release from mouse splenocytes (PMA + ionomycin, ELISA); type: cell-based, Balb/c mice; conditions: Splenocyte, 10 μM, 3 h
Method: 2. Inhibition of IL-17 Release from Mouse Splenocytes:
Splenocytes isolated from Balb/c mice were re-suspended in RPMI medium at a concentration of 1×10^6 cells/ml and seeded in a 6 well plate. Cells were incubated with desired concentrations of the inhibitor for 15 min prior to induction with 10 ng/ml PMA+1 μM ionomycin. After a 3 h incubation, supernatant was collected and analyzed for IL-17 concentration using an ELISA kit. Data were analyzed using GraphPad Prism. IC50 values for each compound were determined based on the percent inhibition due to the test compound compared to the control.

T1 sequence (Q02127 whole entry): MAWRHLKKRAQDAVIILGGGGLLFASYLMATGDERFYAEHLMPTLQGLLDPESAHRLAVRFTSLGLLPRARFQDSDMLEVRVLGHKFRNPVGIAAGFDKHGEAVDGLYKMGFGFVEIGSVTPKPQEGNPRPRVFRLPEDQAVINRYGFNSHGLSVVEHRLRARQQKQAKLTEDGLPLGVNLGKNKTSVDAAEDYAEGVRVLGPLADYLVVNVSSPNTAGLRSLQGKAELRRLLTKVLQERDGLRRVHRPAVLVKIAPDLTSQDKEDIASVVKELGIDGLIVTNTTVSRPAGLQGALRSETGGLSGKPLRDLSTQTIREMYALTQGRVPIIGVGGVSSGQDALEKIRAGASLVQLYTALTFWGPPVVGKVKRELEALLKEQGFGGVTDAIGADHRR

Row | inhibition at 1 µM (h-DHODH) [%] | melting point [°C] | pIC50 (h-DHODH) | inhibition at 0.3 µM (h-DHODH) [%] | SMILES | inhibition at 10 µM (IL-17) [%]
1 | 55.4 | 163 to 167 | – | – | O=C(O)c1ccccc1C(=O)Nc1c(F)cc(-c2ccccc2F)cc1Cl [Example 20, 2-(3-Chloro-2′,5-difluorobiphenyl-4-ylcarbamoyl)benzoic acid] | 24.3
2 | 56.4 | 135.9 to 138.2 | – | – | CCOc1cccc(-c2cc(Cl)c(NC(=O)c3ccccc3C(=O)O)c(Cl)c2)c1 [Example 21, 2-(3,5-Dichloro-3′-ethoxybiphenyl-4-ylcarbamoyl)benzoic acid] | 17.8
3 | 41.8 | 128.3 to 132.1 | – | – | O=C(O)c1ccccc1C(=O)Nc1ccc(-c2cccc(OC(F)(F)F)c2)cc1F [Example 22, 2-[3-Fluoro-3′-(trifluoromethoxy)biphenyl-4-ylcarbamoyl]benzoic acid] | 12.9
4 | 47.2 | 142.2 to 148.1 | – | – | O=C(O)c1ccccc1C(=O)Nc1ccc(-c2ccccc2F)cc1OC(F)(F)F [Example 23, 2-[2′-Fluoro-3-(trifluoromethoxy)biphenyl-4-ylcarbamoyl]benzoic acid] | 15
5 | 40.2 | 185.4 to 193.6 | – | – | O=C(O)c1ccccc1C(=O)Nc1c(Cl)cc(-c2ccccc2F)cc1Cl [Example 24, 2-(3,5-Dichloro-2′-fluorobiphenyl-4-ylcarbamoyl)benzoic acid] | 8.46
6 | 60.2 | 122 to 125 | – | – | CC(C)Oc1cccc(-c2cc(F)c(NC(=O)c3ccccc3C(=O)O)c(F)c2)c1 [Example 25, 2-(3,5-Difluoro-3′-isopropoxybiphenyl-4-ylcarbamoyl)benzoic acid] | 17.5
7 | 85.3 | 128.6 to 132.1 | 6.91 | – | CCCOc1cccc(-c2cc(F)c(NC(=O)c3ccccc3C(=O)O)c(F)c2)c1 [Example 26, 2-(3,5-Difluoro-3′-propoxybiphenyl-4-ylcarbamoyl)benzoic acid] | 8.7
8 | 82.9 | 202.3 to 206.5 | 6.83 | – | O=C(O)c1cc(Cl)c(Cl)cc1C(=O)Nc1c(F)cc(-c2ccccc2Cl)cc1Cl [Example 27, 4,5-Dichloro-2-(2′,3-dichloro-5-fluorobiphenyl-4-ylcarbamoyl)benzoic acid] | 12.4
9 | 68 | 202 to 205.5 | – | – | O=C(O)c1cc(Cl)c(Cl)cc1C(=O)Nc1c(F)cc(-c2ccccc2Cl)cc1F [Example 30, 4,5-Dichloro-2-(2′-chloro-3,5-difluorobiphenyl-4-ylcarbamoyl)benzoic acid] | 10.3
10 | 58.9 | 152.2 to 156.3 | – | – | O=C(O)c1ccccc1C(=O)Nc1c(F)cc(-c2ccccc2F)cc1F [Example 32, 2-(2′,3,5-Trifluorobiphenyl-4-ylcarbamoyl)benzoic acid] | 11.8
11 | 74.4 | 153 to 156.5 | 6.75 | – | O=C(O)c1ccccc1C(=O)Nc1c(F)cc(-c2cccc(OC(F)(F)F)c2)cc1Cl [Example 39, 2-[3-Chloro-5-fluoro-3′-(trifluoromethoxy)biphenyl-4-ylcarbamoyl]benzoic acid] | 5.87
12 | 72.2 | 153 to 156.5 | 7.08 | – | O=C(O)c1ccccc1C(=O)Nc1c(F)cc(-c2cccc(OC3CCCC3)c2)cc1F [Example 41, 2-[3′-(Cyclopentyloxy)-3,5-difluorobiphenyl-4-ylcarbamoyl]benzoic acid] | 7.16
13 | 84.8 | 137.8 to 142.1 | 7.27 | – | CCSc1cccc(-c2cc(F)c(NC(=O)c3ccccc3C(=O)O)c(F)c2)c1 [Example 71, 2-[3′-(ethylthio)-3,5-difluorobiphenyl-4-ylcarbamoyl]benzoic acid] | 27.8
14 | – | 125 to 127 | 7.55 | 85 | O=C(O)c1ccccc1C(=O)Nc1c(F)cc(-c2cccc(OC3CC3)c2)cc1F [Example 73, 2-(3′-cyclopropoxy-3,5-difluorobiphenyl-4-ylcarbamoyl)benzoic acid] | 7.86
15 | – | 138 to 140 | – | 7.14 | CCOc1cccc(-c2cc(F)c(NC(=O)c3cccc(C)c3C(=O)O)c(F)c2)c1 [Example 74, 2-(3′-ethoxy-3,5-difluorobiphenyl-4-ylcarbamoyl)-6(5)-methylbenzoic acid] | 13.8
16 | – | 207 to 210 | – | 44 | CCOc1cccc(-c2cc(F)c(NC(=O)c3ncccc3C(=O)O)c(F)c2)c1 [Example 76, 2-(3′-ethoxy-3,5-difluorobiphenyl-4-ylcarbamoyl)nicotinic acid] | 7.88
17 | – | 219 to 221 | – | 50.2 | CCOc1cccc(-c2cc(F)c(NC(=O)c3ccncc3C(=O)O)c(F)c2)c1 [Example 77, 4-(3′-ethoxy-3,5-difluorobiphenyl-4-ylcarbamoyl)nicotinic acid] | 9.25
18 | – | 158 to 160 | – | 32.9 | CCSc1cccc(-c2c(F)c(F)c(NC(=O)c3ccccc3C(=O)O)c(F)c2F)c1 [Example 78, 2-[3′-(ethylthio)-2,3,5,6-tetrafluorobiphenyl-4-ylcarbamoyl]benzoic acid] | 11.1
19 | – | 116 to 119 | – | 47.6 | CCCOc1cccc(-c2ccc(NC(=O)c3ccccc3C(=O)O)c(F)c2)c1 [Example 80, 2-(3-fluoro-3′-propoxybiphenyl-4-ylcarbamoyl)benzoic acid] | 20.1
20 | – | 152 to 154 | – | 11.2 | CCCOc1cccc(-c2ccc(NC(=O)c3ccccc3C(=O)O)cc2)c1 [Example 81, 2-(3′-propoxybiphenyl-4-ylcarbamoyl)benzoic acid] | 23
21 | – | 74 to 76 | – | 57.9 | CCSc1cccc(-c2ccc(NC(=O)c3ccccc3C(=O)O)cc2F)c1 [Example 82, 2-[3′-(ethylthio)-2-fluorobiphenyl-4-ylcarbamoyl]benzoic acid] | 17.6
22 | – | 243 to 247 | – | 33.6 | O=C(O)c1ccccc1C(=O)Nc1ccc(-c2ccccc2Cl)cc1 [Example 86, 2-(2′-chlorobiphenyl-4-ylcarbamoyl)benzoic acid] | 23.8
23 | – | 243 to 247 | – | 30.2 | COc1cccc(-c2ccc(NC(=O)c3ccccc3C(=O)O)cc2)c1 [Example 87, 2-(3′-methoxybiphenyl-4-ylcarbamoyl)benzoic acid] | 20.9

Row | SMILES | inhibition at 1 µM (h-DHODH) [%] | melting point [°C] | pIC50 (h-DHODH) | inhibition at 0.3 µM (h-DHODH) [%] | inhibition at 10 µM (IL-17) [%]
24 | CC(C)COc1cccc(-c2cc(F)c(NC(=O)c3ccccc3C(=O)O)c(F)c2)c1 [Example 34, 2-(3,5-Difluoro-3′-isobutoxybiphenyl-4-ylcarbamoyl)benzoic acid] | 95.8 | 112.6 to 116.4 | 7.20 | – | 5.96
